“Also recorded” adds a separate entry of the source.
Columns and labels:
[1] = tested on: vancomycin-resistant Enterococcus faecalis (VanA VRE, BM4166); test: In vitro antimicrobial assay (MIC), VanA E. faecalis; format: cell-based
Text: (§1) One day before a study was run, fresh cultures of vancomycin-sensitive Staphylococcus aureus (VSSA strain ATCC 25923), methicillin and oxacillin-resistant Staphylococcus aureus subsp. aureus (MRSA strain ATCC 43300), vancomycin-resistant Enterococcus faecalis (VanA VRE, BM4166), Enterococcus faecium (VanA VRE, ATCC BAA-2317), vancomycin-resistant Enterococcus faecalis (VanB VRE, strain ATCC 51299), Escherichia coli (ATCC 25922), Acinetobacter baumannii (ATCC BAA-1710), Pseudomonas aeruginosa (ATCC 15442), Klebsiella pneumoniae (ATCC 700603) were inoculated and grown in an orbital shaker at 37° C. in 100% Mueller-Hinton broth (VSSA, MRSA and VanB VRE), 100% brain-heart infusion broth (VanA VRE, A. baumannii and K. pneumoniae) or 100% Luria broth (E. coli and P. aeruginosa). After 24 hours, the bacterial stock solutions were serially diluted with the culture medium (10% Mueller-Hinton broth for VSSA, MRSA and VanB VRE or 10% brain-heart infusion broth for VanA VRE A. baumannii and K. pneumoniae or 10% Luria Broth for E. coli and P. aeruginosa) to achieve a turbidity equivalent to a 1:100 dilution of a 0.5 M McFarland solution. This diluted bacterial stock solution was then inoculated in a 96-well V-shaped glass coated microtiter plate, supplemented with serial diluted aliquots of the antibiotic solution in DMSO (4 μL), to achieve a total assay volume of 0.1 mL. The plate was then incubated at 37° C. for 18 hours, after which minimal inhibitory concentrations (MICs) were determined by monitoring the cell growth (observed as a pellet) in the wells.
(§2) The lowest concentration of antibiotic (in μg/mL) capable of eliminating cell growth in the wells is the reported MIC value. The reported MIC values for the vancomycin analogues were determined against vancomycin as a standard in the first well.*
(§3) [*Clinical and Laboratory Standards Institute. Methods for Dilution Antimicrobial Susceptibility Tests for Bacteria That Grow Aerobically; Approved Standard, 7th ed.; CLSI document M07-A8; Clinical and Laboratory Standards Institute: Wayne, Pa., 2009.]

[2] = tested on: Enterococcus faecium (VanA VRE, ATCC BAA-2317); test: In vitro antimicrobial assay (MIC), VanA E. faecium; format: cell-based; conditions: for antibiotic susceptibility profile of the strain: VanA E. faecium ATCC BAA-2317
Text: as §1, §2, §3

[3] = tested on: VanA VRE (E. faecalis BM 4166 and E. faecium ATCC BAA-2317); test: Cell wall permeability assay (propidium iodide uptake); format: cell-based, Enterococcus faecalis; Enterococcus faecium; conditions: 10 μM compound
Text: The effect of the compounds on cell membrane permeability was examined by measuring cytoplasmic membrane uptake of the fluorescent probe propidium iodide in the same VanA vancomycin-resistant E. faecalis (BM 4166) and E. faecium (ATCC BAA-2317) strains. This fluorescent probe only enters cells with permeabilized cell membranes and is detected by the emission of fluorescence upon intracellular nucleic acid binding [Boulos et al., J Microbiol Methods 1999, 37(1):77-86].
Fresh, mid-log phase VanA VRE in pH 7.2 buffer at 25° C. were preincubated with propidium iodide (10 μM) for 5 minutes before the test compounds were added, monitoring the fluorescence emission at 617 nm (excitation at 535 nm) over time, both pre (5 minutes) and post (15 minutes) compound addition. Rapid and sustained increases in fluorescence intensity are observed immediately upon addition of test compounds that induce bacterial cell membrane permeability.
One day before a study was run, cultures of vancomycin-resistant Enterococcus faecalis (VanA VRE, BM4166) and Enterococcus faecium (VanA VRE, ATCC BAA-2317), were inoculated and grown in an orbital shaker at 37° C. in 100% brain-heart infusion broth for 12 hours. The above bacterial solution was subjected to a subculture to obtain fresh mid-log phase bacterial cells (total volume of bacterial suspension=7 mL, incubation time=6 hours, OD600=0.6). After the cultured bacteria were harvested (3000 rpm, 4° C., 20 minutes), the white bacterial precipitate was washed and resuspended in 5 mM glucose and 5 mM HEPES buffer (1:1, 500 μL, pH=7.2).
This bacterial suspension (130 μL) was charged into a 96-well black plate with a clear bottom (Corning 3650). The propidium iodide dye (10 μL, 150 μM DMSO solution) was added to the above suspension and the fluorescence was monitored at 25° C. for 5 minutes at 30 second intervals using a microplate reader (Molecular Devices®, Max Gemini EX) at an excitation wavelength of 535 nm and an emission wavelength of 617 nm. The test compound (150 μM, 10 μL) was added to the cell suspension and the fluorescence was monitored at 25° C. for an additional 15 minutes.

[4] = tested on: red blood cells (pig whole blood); test: Hemolysis assay; format: cell-based; conditions: assay time extended to 24 hours
Experimental: The blood cells in pig whole blood (2 mL, Pel-Free Biologicals, non-sterile, sodium citrate) were harvested (3000 rpm, 4° C., 20 minutes), and the red blood precipitate was washed and resuspended in phosphate buffered saline (pH 7.4). This diluted red blood cell stock solution (384 μL) was incubated with the antibiotic solution in DMSO (16 μL) in a 1 mL microtube to achieve the final concentration of the test compounds. […]
The solution was diluted with phosphate buffer saline (pH 7.4, 200 μL) at 25° C. and centrifuged (3000 rpm, 4° C., 20 minutes). The supernatant (200 μL) was transferred to a microtiter plate. A positive control (0.2% vol % Triton® X-100, 100% total hemolysis) and the negative control (no antibiotic, 0% hemolysis) were prepared. A350 was measured using a microplate reader (Molecular Devices®, Max Gemini EX). The % hemolysis was determined by calculating the following equation shown below (eq. 1).
Although the differences in mammalian and bacterial cell wall composition are extensive, including the more highly anionic composition of the bacterial cell wall responsible for a preferential and differential cation binding, lysis of mammalian cell membranes (red blood cells) are potential off-target consequences of cationic compounds that impact bacterial cell membrane integrity. […]

[5] = tested on: VanA VRE (E. faecalis BM4166 and E. faecium ATCC BAA-2317); test: Resistance development study (serial passaging at 0.5×MIC); format: cell-based, Enterococcus faecalis; Enterococcus faecium; conditions: 0.5×MIC serial exposure, MICs monitored daily
Experimental: However, an additional and even more important feature of the expression of multiple independent mechanisms of action is a mechanism's impact on the rate at which bacterial resistance may emerge.
The MICs of the vancomycin analogues against vancomycin-resistant Enterococcus faecalis (VanA VRE, BM4166) and Enterococcus faecium (VanA VRE, ATCC BAA-2317) were determined. […] A new MIC assay was performed with the same protocol. This process was repeated for 50 passages, and the fold increase in MIC was determined at each passage. [****Pollard et al., J. Antimicrob. Chemother. 2012, 67:2665-2672.]

Row | SMILES | MIC ([1]; Enterococcus faecalis, VRE, read-out: Antimicrobial Activity, MIC, VanA E. faecalis) [µg/mL] | MIC ([2]; Enterococcus faecium, read-out: Antimicrobial Activity, MIC, VanA E. faecium) [µg/mL] | induced cell membrane permeability (propidium uptake) [3] | red blood cell hemolytic activity, extended exposure [4] | antibiotic susceptibility profile of the strain ([1]; VanA E. faecalis BM 4166) | emergence of resistance on serial passaging [5] | antibiotic susceptibility profile of the strain [2]
1 | CCCCCCCCCCCCCC[N+](C)(C)CCCNC(=O)[C@H]1NC(=O)[C@H]2NC(=O)[C@@H](NC(=O)[C@@H]3NC(=O)[C@H](CC(N)=O)NC(=O)[C@H](NC(=O)[C@@H](CC(C)C)NC)[C@H](O)c4ccc(c(Cl)c4)Oc4cc3cc(c4OC3OC(CO)C(O)[C@H](O)[C@@H]3O[C@H]3CC(C)(N)[C@H](O)[C@H](C)O3)Oc3ccc(cc3Cl)[C@H]2O)c2ccc(O)c(c2)-c2c(O)cc(O)cc21 (stereo partly shown) [Compound 12] | 2 | 2 | produced pronounced, rapid cell membrane permeability | performed worse than the control daptomycin | – | – | –
2 | CCCCCCCCCC(=O)N[C@@H](Cc1c[nH]c2ccccc12)C(=O)N[C@H](CC(N)=O)C(=O)N[C@@H](CC(=O)O)C(=O)N[C@@H]1C(=O)NCC(=O)N[C@@H](CCCN)C(=O)N[C@@H](CC(=O)O)C(=O)N[C@H](C)C(=O)N[C@@H](CC(=O)O)C(=O)NCC(=O)N[C@H](CO)C(=O)N[C@@H]([C@H](C)CC(=O)O)C(=O)N[C@@H](CC(=O)c2ccccc2N)C(=O)O[C@@H]1C [daptomycin] | – | – | – | – | sensitive | arises much faster and is much more pronounced; also recorded: arise much faster and was more pronounced | –
3 | CC(=O)NC[C@H]1CN(c2ccc(N3CCOCC3)c(F)c2)C(=O)O1 [linezolid] | – | – | – | – | – | arises much faster and is much more pronounced; also recorded: arise much faster and was more pronounced | insensitive
4 | CN(C)c1cc(NC(=O)CNC(C)(C)C)c(O)c2c1C[C@H]1C[C@H]3[C@H](N(C)C)C(O)=C(C(N)=O)C(=O)[C@@]3(O)C(O)=C1C2=O [tigecycline] | – | – | – | – | – | arises much faster and is much more pronounced; also recorded: arise much faster and was more pronounced | sensitive

Source: patent US10934326B2, “Peripheral modifications on pocket-redesigned vancomycin analogs synergistically improve antimicrobial potency and durability” (priority 2016, dated 2021)
